Measurements reported in paper PMC5975062 (Alzheimer's & Dementia : Translational Research & Clinical …, 2015).
Entries after “also recorded” stand apart in the source; their conditions may differ.

Biological target: QC activity in serum (Homo sapiens, UniProt Q16769)
Conditions: after single and multiple doses

Sequence of QC activity in serum (Q16769 29-361): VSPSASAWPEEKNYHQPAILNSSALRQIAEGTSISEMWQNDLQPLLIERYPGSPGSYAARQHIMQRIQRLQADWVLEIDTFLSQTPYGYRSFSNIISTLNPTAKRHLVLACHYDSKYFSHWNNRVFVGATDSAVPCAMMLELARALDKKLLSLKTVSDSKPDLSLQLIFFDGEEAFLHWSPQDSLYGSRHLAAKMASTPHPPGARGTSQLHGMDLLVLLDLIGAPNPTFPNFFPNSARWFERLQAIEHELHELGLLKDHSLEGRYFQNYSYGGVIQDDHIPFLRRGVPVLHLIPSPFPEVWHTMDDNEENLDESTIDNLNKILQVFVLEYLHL

Question: `CCCOc1ccc([C@H]2CNC(=O)N2c2ccc3[nH]cnc3c2)cc1` [PQ912] was tested. Which “QC activity in serum” value did it give?
Answer: inhibited in a dose-related manner; also recorded: decreased in a dose-related manner
